Results published in patent publication US10336739B2, “4-hydroxy-3-(heteroaryl)pyridine-2-one APJ agonists” (BRISTOL-MYERS SQUIBB COMPANY, priority 2015, dated 2019).
Where two headings read alike, the source gives them in different places.

Target: human APJ receptor (Homo sapiens (Human), UniProt P35414)
Assay: Intracellular cAMP accumulation assay (APJ hcAMP, HTRF)
Type: cell-based
Conditions: HEK293 cells stably expressing human APJ receptor, inhibition of forskolin-mediated cAMP production
Procedure: Intracellular cAMP Accumulation Assay
HEK293 cells stably expressing human APJ receptor were used to assess the activity of compounds. Cultured cells were detached and resuspended in the cAMP Homogeneous Time-Resolved Fluorescence (HTRF) assay buffer (Cisbio cat; #62AM4PEJ). The assay was performed in 384-well assay plates (Perkin-Elmer; cat #6008289) according to assay protocol provided by the manufacturer. Serial dilutions of a compound together with assay buffer containing […] and 2 μM forskolin were added to each well containing 5,000 cells and incubated for 30 minutes at room temperature. Subsequently, cAMP D2 reagent was added in the lysis buffer followed by the EuK antibody (Cisbio; cat #62AM4PEJ) and incubated for 60 min. The fluorescence emission ratio was measured using fluorometer. The intracellular cAMP concentrations (compound-stimulated inhibition of forskolin-mediated cAMP production) were calculated by extrapolation from a standard curve using known cAMP concentrations. The EC50 values were obtained by fitting the data to a sigmoidal concentration-response curve with variable slope.

[1] = read-out: hAPJ cAMP EC50 (nM) Potency range
[2] = read-out: hAPJ cAMP EC50 Potency range
[3] = read-out: Human APJ cAMP EC50 Potency range

Sequence of human APJ receptor (P35414 whole entry): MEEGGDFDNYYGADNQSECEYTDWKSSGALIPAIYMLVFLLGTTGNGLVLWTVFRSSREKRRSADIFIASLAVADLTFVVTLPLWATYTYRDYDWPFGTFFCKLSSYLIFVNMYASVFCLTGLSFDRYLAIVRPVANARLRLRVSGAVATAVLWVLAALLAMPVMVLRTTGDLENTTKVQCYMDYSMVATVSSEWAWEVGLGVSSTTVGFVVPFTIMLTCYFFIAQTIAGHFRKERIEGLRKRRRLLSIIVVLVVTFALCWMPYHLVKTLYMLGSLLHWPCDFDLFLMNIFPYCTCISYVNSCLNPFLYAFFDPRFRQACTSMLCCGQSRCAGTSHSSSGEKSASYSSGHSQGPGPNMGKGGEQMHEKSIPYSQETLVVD

SMILES | EC50 [2] [nM] | further results
CCOCc1nc(O)c(-c2nnc(CC(=O)Nc3nccs3)o2)c(O)c1-c1c(OC)cccc1OC [Example 253, 2-{5-[5-(2,6-dimethoxyphenyl)-6-(ethoxymethyl)-2,4-dihydroxypyridin-3-yl]-1,3,4-oxadiazol-2-yl}-N-(1,3-thiazol-2-yl)acetamide] | – | EC50 [1]: 0.01 to 10 nM
CCOCc1nc(O)c(-c2nnc(Cc3ccc(Cl)cc3)o2)c(O)c1-c1c(OC)cc(F)cc1OC [Example 214, 3-{5-[(4-chlorophenyl)methyl]-1,3,4-oxadiazol-2-yl}-6-(ethoxymethyl)-5-(4-fluoro-2,6-dimethoxyphenyl) pyridine-2,4-diol] | 0.01 to 10 | –
CCOCc1nc(O)c(-c2nnc(Cc3ccc(Cl)cc3)o2)c(O)c1-c1c(O)cccc1O [Example 229, 3-{5-[(4-chlorophenyl)methyl]-1,3,4-oxadiazol-2-yl}-5-(2,6-dihydroxyphenyl)-6-(ethoxymethyl)pyridine-2,4-diol] | – | EC50 [3]: 10 to 100 nM
CCOCc1nc(O)c(-c2nnc(Cn3ccc(C(F)(F)F)n3)o2)c(O)c1-c1c(OC)cccc1OC [Example 129, 5-(2,6-dimethoxyphenyl)-6-(ethoxymethyl)-3-(5-{[3-(trifluoromethyl)-1H-pyrazol-1-yl]methyl}-1,3,4-oxadiazol-2-yl)pyridine-2,4-diol] | 10 to 100 | –
CCCCc1nc(O)c(-c2nnc(Cc3ccc(F)c(F)c3)o2)c(O)c1-c1cccc(C(C)C)c1 [Example 145, 6-butyl-3-{5-[(3,4-difluorophenyl)methyl]-1,3,4-oxadiazol-2-yl}-5-[3-(propan-2-yl)phenyl]pyridine-2,4-diol] | 10 to 100 | –
CCCCc1nc(O)c(-c2nnc(Cc3nnc(-c4ccccc4)[nH]3)o2)c(O)c1-c1c(OC)cccc1OC [Example 66, 6-butyl-5-(2,6-dimethoxyphenyl)-3-{5-[(5-phenyl-4H-1,2,4-triazol-3-yl)methyl]-1,3,4-oxadiazol-2-yl}pyridine-2,4-diol] | 0.01 to 10 | –
CCCCc1nc(O)c(-c2nnc(-c3cc(C)[nH]n3)o2)c(O)c1-c1c(OC)cccc1OC [Example 19, 6-butyl-5-(2,6-dimethoxyphenyl)-3-[5-(5-methyl-1H-pyrazol-3-yl)-1,3,4-oxadiazol-2-yl]pyridine-2,4-diol] | 100 to 300 | –
CCCCc1nc(O)c(-c2nnc(Cc3cccc(C(F)(F)F)c3)o2)c(O)c1-c1c(OC)cccc1OC [Example 73, 6-butyl-5-(2,6-dimethoxyphenyl)-3-(5-{[3-(trifluoromethyl)phenyl]methyl}-1,3,4-oxadiazol-2-yl)pyridine-2,4-diol] | 10 to 100 | –
CCCCc1nc(O)c(-c2nnc(CN(C)C(=O)Cc3ccccc3)o2)c(O)c1-c1c(OC)cccc1OC [Example 155, N-({5-[6-butyl-5-(2,6-dimethoxyphenyl)-2,4-dihydroxypyridin-3-yl]-1,3,4-oxadiazol-2-yl}methyl)-N-methyl-2-phenylacetamide] | – | EC50 [3]: 0.01 to 10 nM
CCOCc1nc(O)c(-c2nnc(Cc3ccc(Cl)cn3)o2)c(O)c1-c1c(OC)cccc1OC [Example 127, 3-{5-[(5-chloropyridin-2-yl)methyl]-1,3,4-oxadiazol-2-yl}-5-(2,6-dimethoxyphenyl)-6-(ethoxymethyl) pyridine-2,4-diol] | 0.01 to 10 | –
CCCCc1nc(O)c(-c2nnc(CC(=O)NCCc3ccccc3Cl)o2)c(O)c1-c1c(OC)cccc1OC [Example 258, 2-{5-[6-butyl-5-(2,6-dimethoxyphenyl)-2,4-dihydroxy-pyridin-3-yl]-1,3,4-oxadiazol-2-yl}-N-[2-(2-chlorophenyl)ethyl]acetamide] | – | EC50 [1]: 0.01 to 10 nM
CCOCc1nc(O)c(-c2nnc(Cc3noc(-c4ccccn4)n3)o2)c(O)c1-c1c(OC)cccc1OC [Example 107, 5-(2,6-dimethoxyphenyl)-6-(ethoxymethyl)-3-(5-{[5-(pyridin-2-yl)-1,2,4-oxadiazol-3-yl]methyl}-1,3,4-oxadiazol-2-yl)pyridine-2,4-diol] | 0.01 to 10 | –
CCCCc1nc(O)c(-c2nnc(Cc3cnn(-c4ccccc4)c3)o2)c(O)c1-c1c(OC)cccc1OC [Example 78, 6-butyl-5-(2,6-dimethoxyphenyl)-3-{5-[(1-phenyl-1H-pyrazol-4-yl)methyl]-1,3,4-oxadiazol-2-yl}pyridine-2,4-diol] | 10 to 100 | –
CCCCc1nc(O)c(-c2nnc(CC(=O)NCc3ccc(OC)cc3)o2)c(O)c1-c1c(OC)cccc1OC [Example 269, 2-{5-[6-butyl-5-(2,6-dimethoxyphenyl)-2,4-dihydroxy-pyridin-3-yl]-1,3,4-oxadiazol-2-yl}-N-[(4-methoxyphenyl)methyl]acetamide] | – | EC50 [1]: 0.01 to 10 nM
CCCCc1nc(O)c(-c2nnc(CCc3nc(-c4ccc(OC)cc4)no3)o2)c(O)c1-c1c(OC)cccc1OC [Example 60, 6-butyl-5-(2,6-dimethoxyphenyl)-3-(5-{2-[3-(4-methoxyphenyl)-1,2,4-oxadiazol-5-yl]ethyl}-1,3,4-oxadiazol-2-yl)pyridine-2,4-diol] | 10 to 100 | –
CCCCc1nc(O)c(-c2nnc(CCc3ccc(Cl)cc3)o2)c(O)c1-c1c(OC)cccc1OC [Example 68, 6-butyl-3-{5-[2-(4-chlorophenyl)ethyl]-1,3,4-oxadiazol-2-yl}-5-(2,6-dimethoxyphenyl) pyridine-2,4-diol] | 0.01 to 10 | –
CCCCc1nc(O)c(-c2nnc(CC(=O)NCc3ccccc3C)o2)c(O)c1-c1c(OC)cccc1OC [Example 264, 2-{5-[6-butyl-5-(2,6-dimethoxyphenyl)-2,4-dihydroxy-pyridin-3-yl]-1,3,4-oxadiazol-2-yl}-N-[(2-methylphenyl)methyl]acetamide] | – | EC50 [1]: 0.01 to 10 nM
CCCCc1nc(O)c(-c2nnc(C(C)(C)c3ccc(Cl)cc3)o2)c(O)c1-c1c(OC)cccc1OC [Example 31, 6-butyl-3-{5-[2-(4-chlorophenyl)propan-2-yl]-1,3,4-oxadiazol-2-yl}-5-(2,6-dimethoxyphenyl) pyridine-2,4-diol] | 0.01 to 10 | –
CCCCc1nc(O)c(-c2nnc(Cc3nc(-c4ccccc4)oc3C)o2)c(O)c1-c1c(OC)cccc1OC [Example 91, 6-butyl-5-(2,6-dimethoxyphenyl)-3-{5-[(5-methyl-2-phenyl-1,3-oxazol-4-yl)methyl]-1,3,4-oxadiazol-2-yl}pyridine-2,4-diol] | 0.01 to 10 | –
CCCCc1nc(O)c(-c2nnc(-c3cccc(Cl)c3)o2)c(O)c1-c1c(OC)cccc1OC [Example 10, 6-butyl-3-[5-(3-chlorophenyl)-1,3,4-oxadiazol-2-yl]-5-(2,6-dimethoxyphenyl) pyridine-2,4-diol] | 10 to 100 | –

More lines, main results first:

EC50 [2] [nM] | SMILES | further results
0.01 to 10 | CCCCc1nc(O)c(-c2nnc(Cn3ccccc3=O)o2)c(O)c1-c1c(OC)cccc1OC [Example 114, 1-({5-[6-butyl-5-(2,6-dimethoxyphenyl)-2,4-dihydroxypyridin-3-yl]-1,3,4-oxadiazol-2-yl}methyl)-1,2-dihydropyridin-2-one] | –
10 to 100 | CCCCc1nc(O)c(-c2nnc(Cc3cncnc3)o2)c(O)c1-c1c(OC)cccc1OC [Example 22, 6-butyl-5-(2,6-dimethoxyphenyl)-3-[5-(pyrimidin-5-ylmethyl)-1,3,4-oxadiazol-2-yl]pyridine-2,4-diol] | –
10 to 100 | CCCCc1nc(O)c(-c2nnc(Cc3ccccc3Cl)o2)c(O)c1-c1c(OC)cccc1OC [Example 5, 6-butyl-3-{5-[(2-chlorophenyl)methyl]-1,3,4-oxadiazol-2-yl}-5-(2,6-dimethoxyphenyl) pyridine-2,4-diol] | –
10 to 100 | CCCCc1nc(O)c(-c2nnc(COc3ccc(F)cc3)o2)c(O)c1-c1c(OC)cccc1OC [Example 42, 6-butyl-5-(2,6-dimethoxyphenyl)-3-[5-(4-fluoro-phenoxymethyl)-1,3,4-oxadiazol-2-yl]pyridine-2,4-diol] | –
0.01 to 10 | CCCCc1nc(O)c(-c2nnc(CN(C)C(=O)c3cccc(Cl)c3)o2)c(O)c1-c1c(OC)cccc1OC [Example 156, N-({5-[6-butyl-5-(2,6-dimethoxyphenyl)-2,4-dihydroxypyridin-3-yl]-1,3,4-oxadiazol-2-yl}methyl)-3-chloro-N-methylbenzamide] | –
0.01 to 10 | CCCCc1nc(O)c(-c2nnc(Cc3cnccn3)o2)c(O)c1-c1c(OC)cccc1OC [Example 21, 6-butyl-5-(2,6-dimethoxyphenyl)-3-[5-(pyrazin-2-ylmethyl)-1,3,4-oxadiazol-2-yl]pyridine-2,4-diol] | –
10 to 100 | CCCCc1nc(O)c(-c2nnc(CNC(=O)OC(C)(C)C)o2)c(O)c1-c1c(OC)cccc1OC [Example 120, tert-butyl N-({5-[6-butyl-5-(2,6-dimethoxyphenyl)-2,4-dihydroxypyridin-3-yl]-1,3,4-oxadiazol-2-yl}methyl) carbamate] | –
0.01 to 10 | CCCCc1nc(O)c(-c2nnc(CC(=O)NCCF)o2)c(O)c1-c1c(OC)cccc1OC [Example 190, 2-{5-[6-butyl-5-(2,6-dimethoxyphenyl)-2,4-dihydroxypyridin-3-yl]-1,3,4-oxadiazol-2-yl}-N-(2-fluoroethyl) acetamide] | –
0.01 to 10 | CCCCc1nc(O)c(-c2nnc(CC(=O)N3CCOCC3)o2)c(O)c1-c1c(OC)cccc1OC [Example 196, 2-{5-[6-butyl-5-(2,6-dimethoxyphenyl)-2,4-dihydroxypyridin-3-yl]-1,3,4-oxadiazol-2-yl}-1-(morpholin-4-yl)ethan-1-one] | –
0.01 to 10 | CCCCc1nc(O)c(-c2nnc(Cc3ccc(OC)cc3)o2)c(O)c1-c1c(OC)cccc1OC [Example 9, 6-butyl-5-(2,6-dimethoxyphenyl)-3-{5-[(4-methoxyphenyl)methyl]-1,3,4-oxadiazol-2-yl}pyridine-2,4-diol] | –
